Common to all, as to type: biochemical
One experiment deals with human cathepsin S (CatS) (Homo sapiens (Human), UniProt P25774). Briefly: CatS functional enzyme assay. The settings on record: for Selectivity Ki(hCatS)/Ki(hCatK): ratio Ki(hCatS)/Ki(hCatK); for Ki: recombinant human CatS, substrate Z-VVR-AMC 5 μM, pH 6.5, Ki by Cheng Prusoff equation, read-out: hCatS, Ki; for inhibition at 10 µM: read-out: hCatS, inhibition [%] at 10 μM. Here is the method: Reference and test compounds were assayed for inhibitory potency (IC50) against human cathepsins using the following assay setups: Recombinant human cathepsins (CatS, CatK, CatL) were purchased from a Enzo Life Sciences. […] For CatS, the enzyme (0.0007 mU/well) was incubated with fluorogeninc substrate (Z-VVR-AMC, 5 μM) at RT for 10 min. For CatK the enzyme (0.00175 mU/well) was incubated with fluorogeninc substrate (Z-FR-AMC, 40 μM) at RT for 10 min. For CatL, the enzyme (0.000874 mU/well) was incubated with fluorogeninc substrate (Z-VVR-AMC, 40 μM) at RT for 10 min. Flourogenic substrate turnover was detected using a microplate reader (Synergy™ H4, BioTek). Ki values were calculated using the Cheng Prusoff equation (Cheng & Prosoff 1973).

Another experiment deals with human cathepsin K (CatK) (Homo sapiens (Human), UniProt P43235). The experiment is described as follows: CatK functional enzyme assay. The settings on record: for Ki: recombinant human CatK, substrate Z-FR-AMC 40 μM, pH 5.5, Ki by Cheng Prusoff equation, read-out: hCatK, Ki. Here is the method:
(§1) Reference and test compounds were assayed for inhibitory potency (IC50) against human cathepsins using the following assay setups:
(§2) Recombinant human cathepsins (CatS, CatK, CatL) were purchased from a Enzo Life Sciences. All assays were carried out in 96-well format using a buffer of 50 mM KH2PO4, 50 mM NaCl, 2 mM EDTA, 0.5 mM DTT and 1% Triton-X-100, pH 6.5 for Cathepsin S and a buffer of 50 mM NaOAc, 10 mM EDTA, 1 mM DTT and 0.01% Triton-X-100, pH 5.5 for CatK/L/B. For CatS, the enzyme (0.0007 mU/well) was incubated with fluorogeninc substrate (Z-VVR-AMC, 5 μM) at RT for 10 min. For CatK the enzyme (0.00175 mU/well) was incubated with fluorogeninc substrate (Z-FR-AMC, 40 μM) at RT for 10 min. For CatL, the enzyme (0.000874 mU/well) was incubated with fluorogeninc substrate (Z-VVR-AMC, 40 μM) at RT for 10 min. Flourogenic substrate turnover was detected using a microplate reader (Synergy™ H4, BioTek). Ki values were calculated using the Cheng Prusoff equation (Cheng & Prosoff 1973).

The target of the next experiment is human cathepsin L (CatL) (Homo sapiens (Human), UniProt P07711). Briefly: CatL functional enzyme assay. Conditions: read-out: hCatL, inhibition [%] at 31.6 μM. Here is the method: as §1, §2

SMILES strings stand for the structures.

Chain of human cathepsin S (CatS) (P25774 115-331): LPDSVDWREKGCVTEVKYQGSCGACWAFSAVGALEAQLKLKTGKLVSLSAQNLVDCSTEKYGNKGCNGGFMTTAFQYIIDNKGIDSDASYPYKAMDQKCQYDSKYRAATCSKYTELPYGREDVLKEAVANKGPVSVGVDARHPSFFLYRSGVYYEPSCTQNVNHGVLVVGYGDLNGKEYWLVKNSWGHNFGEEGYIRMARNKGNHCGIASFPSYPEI
Chain of human cathepsin L (CatL) (P07711 114-333): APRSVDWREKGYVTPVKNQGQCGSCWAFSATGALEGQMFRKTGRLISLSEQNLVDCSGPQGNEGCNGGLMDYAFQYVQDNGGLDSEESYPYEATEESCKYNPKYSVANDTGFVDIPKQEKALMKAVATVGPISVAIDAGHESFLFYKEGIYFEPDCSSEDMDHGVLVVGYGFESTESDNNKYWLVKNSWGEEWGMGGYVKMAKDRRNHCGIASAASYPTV
Chain of human cathepsin K (CatK) (P43235 115-329): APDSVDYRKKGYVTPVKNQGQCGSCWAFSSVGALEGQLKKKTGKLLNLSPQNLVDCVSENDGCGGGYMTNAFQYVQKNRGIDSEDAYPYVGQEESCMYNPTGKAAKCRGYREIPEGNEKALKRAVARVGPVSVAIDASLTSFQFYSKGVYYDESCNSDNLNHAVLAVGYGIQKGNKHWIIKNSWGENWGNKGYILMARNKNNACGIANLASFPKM

Take `O=C(N[C@H](C(=O)N1C[C@H](Cl)[C@H]2OCC(=O)[C@H]21)C1CCCCC1)c1ncc(-c2cccnn2)s1` [Example 15, N-((S)-2-((3aS,6S,6aS)-6-chloro-3-oxotetrahydro-2H-furo[3,2-b]pyrrol-4(5H)-yl)-1-cyclohexyl-2-oxoethyl)-5-(pyridazin-3-yl)thiazole-2-carboxamide]: at human cathepsin S (CatS), the “Selectivity Ki(hCatS)/Ki(hCatK)” value is given as 7.7 and the Ki – broadly, a dissociation constant, usually derived from enzyme kinetics or from competition with a known ligand – was found to be 193 nM. In addition, the inhibition constant (Ki) at human cathepsin K (CatK) worked out at 25 nM. Further, the inhibition (in general, the share of the control response that was lost under treatment) at 31.6 µM on human cathepsin L (CatL) was determined as 12%.

For the compound `O=C(N[C@H](C(=O)N1C[C@H](Cl)[C@H]2OCC(=O)[C@H]21)C1CCCCC1)c1ccc(-c2cncc(F)c2)s1` [Example 16, N-((S)-2-((3aS,6S,6aS)-6-chloro-3-oxotetrahydro-2H-furo[3,2-b]pyrrol-4(5H)-yl)-1-cyclohexyl-2-oxoethyl)-5-(5-fluoropyridin-3-yl)thiophene-2-carboxamide], at human cathepsin S (CatS), the “Selectivity Ki(hCatS)/Ki(hCatK)” value is listed as 19.9 and the inhibition constant Ki worked out at 259 nM. Besides, the inhibition constant (Ki) on human cathepsin K (CatK) was found to be 13 nM. Moreover, the inhibition at 31.6 µM at human cathepsin L (CatL) is 15%.

On to `O=C(N[C@H](C(=O)N1C[C@H](Cl)[C@H]2OCC(=O)[C@H]21)C1CCCCC1)c1ccc(-c2ccc(Cl)nc2)s1` [Example 17, N-((S)-2-((3aS,6S,6aS)-6-chloro-3-oxotetrahydro-2H-furo[3,2-b]pyrrol-4(5H)-yl)-1-cyclohexyl-2-oxoethyl)-5-(6-chloropyridin-3-yl)thiophene-2-carboxamide], for which, on human cathepsin S (CatS), the “Selectivity Ki(hCatS)/Ki(hCatK)” value is 21.7 and the Ki turned out to be 347 nM. Besides, on human cathepsin K (CatK), the inhibitory constant (Ki) is 16 nM. Moreover, the inhibition at 31.6 µM at human cathepsin L (CatL) amounted to 9%.

On to `O=C(N[C@H](C(=O)N1C[C@H](Cl)[C@H]2OCC(=O)[C@H]21)C1CCCCC1)c1ncc(-c2ccnnc2)s1` [Example 18, N-((S)-2-((3aS,6S,6aS)-6-chloro-3-oxotetrahydro-2H-furo[3,2-b]pyrrol-4(5H)-yl)-1-cyclohexyl-2-oxoethyl)-5-(pyridazin-4-yl)thiazole-2-carboxamide], for which, on human cathepsin S (CatS), the “Selectivity Ki(hCatS)/Ki(hCatK)” value is given as 1.2 and the inhibition constant (Ki) is 37 nM. Besides, the Ki on human cathepsin K (CatK) came to 31 nM. The inhibition at 31.6 µM on human cathepsin L (CatL) was found to be 15%.

As for `O=C(N[C@H](C(=O)N1C[C@H](Cl)[C@H]2OCC(=O)[C@H]21)C1CCCCC1)c1ccc(-c2ccnnc2)o1` [Example 19, N-((S)-2-((3aS,6S,6aS)-6-chloro-3-oxotetrahydro-2H-furo[3,2-b]pyrrol-4(5H)-yl)-1-cyclohexyl-2-oxoethyl)-5-(pyridazin-4-yl)furan-2-carboxamide], the “Selectivity Ki(hCatS)/Ki(hCatK)” value on human cathepsin S (CatS) is reported as 0.8. The Ki at human cathepsin S (CatS) was 74 nM; at human cathepsin K (CatK), 93 nM. Further, the inhibition at 31.6 µM on human cathepsin L (CatL) was determined as 12%.

On to `O=C(N[C@H](C(=O)N1C[C@H](Cl)[C@H]2OCC(=O)[C@H]21)C1CCCCC1)c1ccc(-c2cccnn2)o1` [Example 20, N-((S)-2-((3aS,6S,6aS)-6-chloro-3-oxotetrahydro-2H-furo[3,2-b]pyrrol-4(5H)-yl)-1-cyclohexyl-2-oxoethyl)-5-(pyridazin-3-yl)furan-2-carboxamide], for which, at human cathepsin S (CatS), the “Selectivity Ki(hCatS)/Ki(hCatK)” value was 3.2 and the Ki was 727 nM. Also, the Ki at human cathepsin K (CatK) turned out to be 225 nM. Moreover, the inhibition at 31.6 µM at human cathepsin L (CatL) amounted to 16%.

`Cc1nc(-c2cnccn2)sc1C(=O)N[C@H](C(=O)N1C[C@H](Cl)[C@H]2OCC(=O)[C@H]21)C1CCCCC1` [Example 22, N-((S)-2-((3aS,6S,6aS)-6-chloro-3-oxotetrahydro-2H-furo[3,2-b]pyrrol-4(5H)-yl)-1-cyclohexyl-2-oxoethyl)-4-methyl-2-(pyrazin-2-yl)thiazole-5-carboxamide]: the inhibition at 10 µM on human cathepsin S (CatS) came out at 73%. Besides, the Ki on human cathepsin K (CatK) was 37 nM. In addition, on human cathepsin L (CatL), the inhibition at 31.6 µM worked out at 17%.

On to `O=C(N[C@H](C(=O)N1C[C@H](Cl)[C@H]2OCC(=O)[C@H]21)C1CCCCC1)c1sc(-c2cccnc2)nc1C(F)(F)F` [Example 23, N-((S)-2-((3aS,6S,6aS)-6-chloro-3-oxotetrahydro-2H-furo[3,2-b]pyrrol-4(5H)-yl)-1-cyclohexyl-2-oxoethyl)-2-(pyridin-3-yl)-4-(trifluoromethyl)thiazole-5-carboxamide], for which the inhibition at 10 µM on human cathepsin S (CatS) came out at 60%; on human cathepsin K (CatK) (read-out: hCatK, inhibition [%] at 10 μM), 52%. Moreover, the inhibition at 31.6 µM at human cathepsin L (CatL) was 0%.

For the compound `O=C(N[C@H](C(=O)N1C[C@H](Cl)[C@H]2OCC(=O)[C@H]21)C1CCCCC1)c1ncc(-c2cncnc2)s1` [Example 24, N-((S)-2-((3aS,6S,6aS)-6-chloro-3-oxotetrahydro-2H-furo[3,2-b]pyrrol-4(5H)-yl)-1-cyclohexyl-2-oxoethyl)-5-(pyrimidin-5-yl)thiazole-2-carboxamide], on human cathepsin S (CatS), the “Selectivity Ki(hCatS)/Ki(hCatK)” value is reported as 2.8 and the Ki was 61 nM. The Ki at human cathepsin K (CatK) came out at 22 nM. The inhibition at 31.6 µM on human cathepsin L (CatL) amounted to 10%.

Regarding `O=C(N[C@H](C(=O)N1C[C@H](Cl)[C@H]2OCC(=O)[C@H]21)C1CCCCC1)c1ccc(-c2cnccn2)o1` [Example 25, N-((S)-2-((3aS,6S,6aS)-6-chloro-3-oxotetrahydro-2H-furo[3,2-b]pyrrol-4(5H)-yl)-1-cyclohexyl-2-oxoethyl)-5-(pyrazin-2-yl)furan-2-carboxamide], at human cathepsin S (CatS), the “Selectivity Ki(hCatS)/Ki(hCatK)” value was 5.4 and the Ki turned out to be 833 nM. In addition, at human cathepsin K (CatK), the inhibition constant (Ki) worked out at 153 nM. Besides, at human cathepsin L (CatL), the inhibition at 31.6 µM stood at 20%.

On to `O=C(N[C@H](C(=O)N1C[C@H](Cl)[C@H]2OCC(=O)[C@H]21)C1CCCCC1)c1ncc(-c2ccncn2)s1` [Example 26, N-((S)-2-((3aS,6S,6aS)-6-chloro-3-oxotetrahydro-2H-furo[3,2-b]pyrrol-4(5H)-yl)-1-cyclohexyl-2-oxoethyl)-5-(pyrimidin-4-yl)thiazole-2-carboxamide], for which, at human cathepsin S (CatS), the “Selectivity Ki(hCatS)/Ki(hCatK)” value is 4.6 and the Ki is 220 nM. Also, the inhibition constant (Ki) on human cathepsin K (CatK) amounted to 48 nM. In addition, the inhibition at 31.6 µM at human cathepsin L (CatL) amounted to 32%.

As for `Cc1ncc(-c2ccc(C(=O)N[C@H](C(=O)N3C[C@H](Cl)[C@H]4OCC(=O)[C@H]43)C3CCCCC3)s2)cn1` [Example 30, N-((S)-2-((3aS,6S,6aS)-6-chloro-3-oxotetrahydro-2H-furo[3,2-b]pyrrol-4(5H)-yl)-1-cyclohexyl-2-oxoethyl)-5-(2-methylpyrimidin-5-yl)thiophene-2-carboxamide], at human cathepsin S (CatS), the “Selectivity Ki(hCatS)/Ki(hCatK)” value is reported as 7.2. For the same compound, the results for the inhibitory constant (Ki) on human cathepsin S (CatS) and at human cathepsin K (CatK) were 72 nM and 10 nM, respectively. For the same compound, the inhibition at 31.6 µM on human cathepsin L (CatL) is 28%.

With `O=C(N[C@H](C(=O)N1C[C@H](Cl)[C@H]2OCC(=O)[C@H]21)C1CCCCC1)c1ccc(-c2ccncc2F)s1` [Example 31, N-((S)-2-((3aS,6S,6aS)-6-chloro-3-oxotetrahydro-2H-furo[3,2-b]pyrrol-4(5H)-yl)-1-cyclohexyl-2-oxoethyl)-5-(3-fluoropyridin-4-yl)thiophene-2-carboxamide], the “Selectivity Ki(hCatS)/Ki(hCatK)” value on human cathepsin S (CatS) stood at 88.0. In addition, the Ki came out at 440 nM at human cathepsin S (CatS) and 5 nM on human cathepsin K (CatK). Moreover, the inhibition at 31.6 µM on human cathepsin L (CatL) amounted to 14%.

Regarding `Cc1nccc(-c2cnc(C(=O)N[C@H](C(=O)N3C[C@H](Cl)[C@H]4OCC(=O)[C@H]43)C3CCCCC3)s2)n1` [Example 32, N-((S)-2-((3aS,6S,6aS)-6-chloro-3-oxotetrahydro-2H-furo[3,2-b]pyrrol-4(5H)-yl)-1-cyclohexyl-2-oxoethyl)-5-(2-methylpyrimidin-4-yl)thiazole-2-carboxamide], at human cathepsin S (CatS), the “Selectivity Ki(hCatS)/Ki(hCatK)” value is 15.9 and the Ki came to 317 nM. For the same compound, the inhibition constant Ki at human cathepsin K (CatK) was 20 nM. For the same compound, the inhibition at 31.6 µM at human cathepsin L (CatL) was 22%.

For `Cc1cc(-c2ccc(C(=O)N[C@H](C(=O)N3C[C@H](Cl)[C@H]4OCC(=O)[C@H]43)C3CCCCC3)s2)ccn1` [Example 33, N-((S)-2-((3aS,6S,6aS)-6-chloro-3-oxotetrahydro-2H-furo[3,2-b]pyrrol-4(5H)-yl)-1-cyclohexyl-2-oxoethyl)-5-(2-methylpyridin-4-yl)thiophene-2-carboxamide], on human cathepsin S (CatS), the “Selectivity Ki(hCatS)/Ki(hCatK)” value was 21.5 and the Ki was found to be 86 nM. For the same compound, the Ki on human cathepsin K (CatK) worked out at 4 nM. Besides, the inhibition at 31.6 µM at human cathepsin L (CatL) was 12%.

These data come from US9725459B2, “3-oxo-tetrahydro-furo[3,2-B]pyrrol-4(5H)-yl) derivatives I” (GRÜNENTHAL GMBH, priority 2014, dated 2017).
